This is an account of results in patent US9255094B2, “Pyrido[4,3-B]indoles and methods of use” (Medivation Technologies, Inc., priority 2009, dated 2016).

Usually inhibition stands for the drop in the measured response relative to a control, in per cent.

Assay [1] concerns the target human recombinant histamine H1 receptor (Homo sapiens, UniProt P35367). The assay can be described thus: Histamine H1 radioligand binding assay ([3H]Pyrilamine). The settings on record: compound at 1 μM, receptor expressed in CHO cells. The method, then:
To evaluate in radioligand binding assays the activity of compounds of the invention, human recombinant histamine H1 receptor expressed in Chinese hamster ovary (CHO) cells (De Backer, M. D. et al., Biochem. Biophys. Res. Comm. 197(3):1601, 1993) in a modified Tris-HCl buffer (50 mM Tris-HCl, pH 7.4, 2 mM MgCl2, 100 mM NaCl, 250 mM Sucrose) was used. Compounds of the invention were incubated with 1.2 nM [^3H]Pyrilamine for 180 min at 25° C. Non-specific binding was estimated in the presence of 1 μM pyrilamine Receptor proteins were filtered and washed, the filters were then counted to determine [^3H]Pyrilamine specifically bound. Compounds were screened at 1 μM or lower, using 1% DMSO as vehicle. Biochemical assay results are presented as the percent inhibition of specific binding in Table 2.

Assay [2] deals with human recombinant dopamine D2L receptor (Homo sapiens, UniProt P14416). Put plainly: Dopamine D2L radioligand binding assay ([3H]Spiperone). The settings on record: compound at 1 μM, 0.16 nM [3H]Spiperone, CHO cells, read-out: Percent Inhibition of ligand binding, Dopamine (1μM). The method, then:
Compounds of the invention were incubated with 0.16 nM [^3H]Spiperone for 120 min at 25° C. Non-specific binding was estimated in the presence of 10 μM Haloperidol. Receptor proteins were filtered and washed, the filters were then counted to determine [^3H]Spiperone specifically bound. Compounds were screened at 1 μM or lower, using 1% DMSO as vehicle. Biochemical assay results are presented as the percent inhibition of specific binding in Table 3.

Assay [3] concerns the target T1, human recombinant serotonin (5-Hydroxytryptamine) 5-HT2A receptor (Homo sapiens, UniProt P28223).
T1 construct: expressed in transfected cells; host or cells: Chinese hamster ovary (CHO-K1) cells
Put plainly: Serotonin 5-HT2A radioligand binding assay ([3H]Ketanserin). The conditions noted are these: 0.5 nM [3H]Ketanserin, CHO-K1 cells; for inhibition at 0.1 µM: compound at 0.1 μM, read-out: Percent Inhibition of ligand binding, Serotonin (0.1 μM) 5-HT2A. The method, then:
Compounds of the invention were incubated with 0.5 nM [^3H]Ketanserin for 60 min at 25° C. Non-specific binding was estimated in the presence of 1 μM Mianserin. Receptor proteins were filtered and washed, the filters were then counted to determine [^3H]Ketanserin specifically bound. Compounds were screened at 1 μM or lower, using 1% DMSO as vehicle. Biochemical assay results are presented as the percent inhibition of specific binding in Table 4.

The target in assay [4] is T2, human recombinant serotonin (5-Hydroxytryptamine) 5-HT2C receptor (Homo sapiens, UniProt P28335).
T2 construct: expressed in transfected cells; host or cells: Chinese hamster ovary (CHO-K1) cells
T2 sequence (P28335 33-458): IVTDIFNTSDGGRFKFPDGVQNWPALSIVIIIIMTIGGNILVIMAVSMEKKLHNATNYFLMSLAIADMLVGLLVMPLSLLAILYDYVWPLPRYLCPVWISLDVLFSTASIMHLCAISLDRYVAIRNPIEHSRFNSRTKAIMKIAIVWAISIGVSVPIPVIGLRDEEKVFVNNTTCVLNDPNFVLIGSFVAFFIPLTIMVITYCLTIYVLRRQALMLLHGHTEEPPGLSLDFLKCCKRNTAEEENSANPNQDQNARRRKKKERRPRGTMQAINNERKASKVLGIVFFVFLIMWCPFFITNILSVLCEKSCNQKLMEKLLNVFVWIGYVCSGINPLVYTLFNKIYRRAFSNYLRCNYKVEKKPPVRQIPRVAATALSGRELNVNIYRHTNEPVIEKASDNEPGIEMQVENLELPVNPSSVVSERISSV
Put plainly: Serotonin 5-HT2C radioligand binding assay ([3H]Mesulergine). The conditions noted are these: compound at 0.1 μM; 1 nM [3H]Mesulergine; CHO-K1 cells; read-out: Percent Inhibition of ligand binding, Serotonin (0.1 μM) 5-HT2C. The method, then:
Compounds of the invention were incubated with 1 nM [^3H]Mesulergine for 60 min at 25° C. Non-specific binding was estimated in the presence of 1 μM Mianserin. Receptor proteins were filtered and washed, the filters were then counted to determine [^3H]Mesulergine specifically bound. Compounds were screened at 1 μM or lower, using 1% DMSO as vehicle. Biochemical assay results are presented as the percent inhibition of specific binding in Table 4.

Assay [5] has as its target T3, human recombinant serotonin (5-Hydroxytryptamine) 5-HT6 receptor (Homo sapiens, UniProt P50406).
T3 construct: expressed in transfected cells; host or cells: human HeLa cells
Put plainly: Serotonin 5-HT6 radioligand binding assay ([3H]LSD). The settings on record: compound at 0.1 μM, HeLa cells, read-out: Percent Inhibition of ligand binding, Serotonin (0.1 μM) 5-HT6. The method, then:
Compounds of the invention were incubated with 1.5 nM [3H]Lysergic acid diethylamide (LSD) for 120 min at 37° C. […] Receptor proteins were filtered and washed, the filters were then counted to determine [3H]LSD specifically bound. Compounds were screened at 1 μM or lower, using 1% DMSO as vehicle. Biochemical assay results are presented as the percent inhibition of specific binding in Table 4.

In assay [6] the target is human recombinant serotonin (5-Hydroxytryptamine) 5-HT7 receptor (Homo sapiens, UniProt P34969). Put plainly: Serotonin 5-HT7 radioligand binding assay ([3H]LSD). The settings on record: compound at 0.1 μM; 5.5 nM [3H]LSD; CHO cells; read-out: Percent Inhibition of ligand binding, Serotonin (0.1 μM) 5-HT7. The method, then: Compounds of invention were incubated with 5.5 nM [^3H] Lysergic acid diethylamide (LSD) for 2 h at 25° C. […] Receptor proteins were filtered and washed, the filters were then counted to determine [^3H]LSD specifically bound. Compounds were screened at 1 μM or lower, using 1% DMSO as vehicle. Biochemical assay results are presented as the percent inhibition of specific binding in Table 4.
Chain of human recombinant serotonin (5-Hydroxytryptamine) 5-HT7 receptor (P34969 whole entry): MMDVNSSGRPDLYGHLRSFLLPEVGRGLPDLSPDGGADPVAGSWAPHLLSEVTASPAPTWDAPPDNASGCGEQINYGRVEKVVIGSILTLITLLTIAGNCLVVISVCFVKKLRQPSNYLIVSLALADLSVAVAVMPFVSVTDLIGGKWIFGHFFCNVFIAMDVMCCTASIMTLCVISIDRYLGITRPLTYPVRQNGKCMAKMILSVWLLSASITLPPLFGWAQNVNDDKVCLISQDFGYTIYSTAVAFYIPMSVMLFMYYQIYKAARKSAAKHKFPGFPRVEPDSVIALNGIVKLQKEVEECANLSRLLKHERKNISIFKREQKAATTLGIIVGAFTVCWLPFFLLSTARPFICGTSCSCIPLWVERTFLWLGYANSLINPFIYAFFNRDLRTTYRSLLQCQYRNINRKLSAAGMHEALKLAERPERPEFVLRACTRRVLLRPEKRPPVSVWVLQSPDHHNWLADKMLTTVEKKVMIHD

Chain of human recombinant histamine H1 receptor (P35367 whole entry): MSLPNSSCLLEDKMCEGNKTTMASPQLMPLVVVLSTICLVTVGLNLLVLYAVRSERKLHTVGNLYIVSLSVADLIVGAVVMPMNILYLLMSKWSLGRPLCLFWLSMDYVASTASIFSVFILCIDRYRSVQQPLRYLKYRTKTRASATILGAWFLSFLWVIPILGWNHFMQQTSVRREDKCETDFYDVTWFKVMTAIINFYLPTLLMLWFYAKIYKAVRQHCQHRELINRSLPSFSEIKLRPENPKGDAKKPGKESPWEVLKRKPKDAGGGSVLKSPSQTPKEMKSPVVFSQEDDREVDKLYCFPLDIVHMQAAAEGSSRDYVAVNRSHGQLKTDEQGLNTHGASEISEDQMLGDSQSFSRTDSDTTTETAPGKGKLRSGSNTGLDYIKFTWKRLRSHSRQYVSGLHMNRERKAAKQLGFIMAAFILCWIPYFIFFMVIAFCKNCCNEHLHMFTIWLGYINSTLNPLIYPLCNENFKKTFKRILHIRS
T3 sequence (P50406 whole entry): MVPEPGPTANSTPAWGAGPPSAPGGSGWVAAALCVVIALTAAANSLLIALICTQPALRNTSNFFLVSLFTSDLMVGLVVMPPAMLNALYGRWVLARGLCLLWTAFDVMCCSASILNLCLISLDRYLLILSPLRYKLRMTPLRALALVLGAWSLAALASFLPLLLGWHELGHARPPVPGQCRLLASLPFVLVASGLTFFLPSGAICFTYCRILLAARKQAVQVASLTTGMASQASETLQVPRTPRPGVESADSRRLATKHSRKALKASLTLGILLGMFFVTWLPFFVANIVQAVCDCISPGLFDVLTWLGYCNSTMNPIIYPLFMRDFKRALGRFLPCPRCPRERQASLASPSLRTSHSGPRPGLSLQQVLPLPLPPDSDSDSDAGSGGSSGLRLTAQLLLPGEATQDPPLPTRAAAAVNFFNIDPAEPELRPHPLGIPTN
T1 sequence (P28223 whole entry): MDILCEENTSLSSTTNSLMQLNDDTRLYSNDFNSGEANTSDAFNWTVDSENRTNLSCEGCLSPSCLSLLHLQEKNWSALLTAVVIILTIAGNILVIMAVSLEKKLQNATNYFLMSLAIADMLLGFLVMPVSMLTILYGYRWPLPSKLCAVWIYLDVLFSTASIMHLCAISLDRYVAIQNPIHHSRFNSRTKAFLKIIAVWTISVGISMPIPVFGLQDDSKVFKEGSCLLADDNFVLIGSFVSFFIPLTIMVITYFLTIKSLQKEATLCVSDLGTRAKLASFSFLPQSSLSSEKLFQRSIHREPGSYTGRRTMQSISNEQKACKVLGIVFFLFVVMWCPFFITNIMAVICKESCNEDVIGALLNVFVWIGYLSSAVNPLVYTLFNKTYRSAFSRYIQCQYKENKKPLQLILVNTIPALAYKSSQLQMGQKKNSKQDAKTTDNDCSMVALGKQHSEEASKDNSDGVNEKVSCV
Chain of human recombinant dopamine D2L receptor (P14416 whole entry): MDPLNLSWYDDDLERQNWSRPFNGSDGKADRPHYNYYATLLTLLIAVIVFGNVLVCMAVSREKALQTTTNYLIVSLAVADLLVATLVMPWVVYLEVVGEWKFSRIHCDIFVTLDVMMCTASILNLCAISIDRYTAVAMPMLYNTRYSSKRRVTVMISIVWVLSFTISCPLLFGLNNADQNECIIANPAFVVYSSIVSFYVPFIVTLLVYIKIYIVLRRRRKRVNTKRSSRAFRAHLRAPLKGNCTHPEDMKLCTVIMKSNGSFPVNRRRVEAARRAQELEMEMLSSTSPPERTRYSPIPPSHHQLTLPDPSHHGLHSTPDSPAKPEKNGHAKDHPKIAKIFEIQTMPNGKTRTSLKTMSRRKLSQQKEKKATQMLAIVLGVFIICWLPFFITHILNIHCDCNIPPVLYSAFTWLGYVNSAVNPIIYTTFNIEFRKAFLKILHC

`Cc1ccc2c(c1)c1c(n2CC(O)(c2ccc(F)cc2)C2CCCCC2)CCN(C)C1` (stereo not drawn) [Compound 1-1, 1-cyclohexyl-2-(2,8-dimethyl-3,4-dihydro-1H-pyrido[4,3-b]indol-5(2H)-yl)-1-(4-fluorophenyl)ethanol]: the inhibition at 1 µM in assay [1] was determined as 22%; in assay [2] it was 13%; in assay [3] (compound at 1 μM, read-out: Percent Inhibition of ligand binding, Serotonin (1 μM) 5-HT2A) it was 97%. Moreover, the inhibition at 0.1 µM in assay [3] was 60%.

For `CCC(O)(Cn1c2c(c3cc(C)ccc31)CN(C)CC2)c1ccncc1` (stereo not drawn) [Compound 1-24, 1-(2,8-dimethyl-3,4-dihydro-1H-pyrido[4,3-b]indol-5(2H)-yl)-2-(pyridin-4-yl)butan-2-ol], the inhibition at 1 µM in assay [2] was 9%. The inhibition at 0.1 µM is 36% in assay [3], 8% in assay [4], 10% in assay [5] and 12% in assay [6].

For `Cc1ccc2c(c1)c1c(n2CCc2ccc(C)nc2)CC(C)N(C)C1` (stereo not drawn) [Compound 1-44, 2,3,8-trimethyl-5-(2-(6-methylpyridin-3-yl)ethyl)-2,3,4,5-tetrahydro-1H-pyrido[4,3-b]indole], the inhibition at 1 µM in assay [1] is 100%; in assay [2], 8%. The inhibition at 0.1 µM in assay [3] was determined as 16%; in assay [4] it was 45%; in assay [5], 46%; in assay [6] it was 74%.

Regarding `Cc1ccc2c(c1)c1c(n2CCc2ccc(C(F)(F)F)nc2)CC(C)N(C)C1` (stereo not drawn) [Compound 1-45, 2,3,8-trimethyl-5-(2-(6-(trifluoromethyl)pyridin-3-yl)ethyl)-2,3,4,5-tetrahydro-1H-pyrido[4,3-b]indole], the results for the inhibition at 1 µM in assay [1] and in assay [2] were 96% and 0%, respectively. Further, the inhibition at 0.1 µM in assay [3] was 51%; in assay [4], 50%; in assay [5], 18%; in assay [6], 78%.

`Cc1ccc2c(c1)c1c(n2CC(C)c2ccc(C)nc2)CC(C)N(C)C1` (stereo not drawn) [Compound 1-47, 2,3,8-trimethyl-5-(2-(6-methylpyridin-3-yl)propyl)-2,3,4,5-tetrahydro-1H-pyrido[4,3-b]indole]: the inhibition at 1 µM stood at 91% in assay [1] and 12% in assay [2]. The inhibition at 0.1 µM in assay [3] was 46%; in assay [4], 70%; in assay [5], 19%; in assay [6], 85%.

In the case of `Cc1ccc(CCn2c3c(c4cc(Cl)ccc42)CN(C)C(C)C3)cn1` (stereo not drawn) [Compound 1-48, 8-chloro-2,3-dimethyl-5-(2-(6-methylpyridin-3-yl)ethyl)-2,3,4,5-tetrahydro-1H-pyrido[4,3-b]indole], the inhibition at 1 µM came to 101% in assay [1] and 12% in assay [2]. In addition, the inhibition at 0.1 µM in assay [3] came out at 30%; in assay [4], 40%; in assay [5], 50%; in assay [6], 86%.

As for `Cc1ccc2c(c1)c1c(n2CC2(c3ccncc3)CC2)CCN(C)C1` [Compound 1-50, 2,8-dimethyl-5-((1-(pyridin-4-yl)cyclopropyl)methyl)-2,3,4,5-tetrahydro-1H-pyrido[4,3-b]indole], the inhibition at 1 µM in assay [1] turned out to be 97%; in assay [2] it was 47%. Besides, the inhibition at 0.1 µM in assay [3] is 77%; in assay [4], -1%; in assay [5], 30%; in assay [6] it was 95%.

For `Cc1ccc2c(c1)c1c(n2CCc2ccc(C(F)(F)F)nc2)C(C)CN(C)C1` (stereo not drawn) [Compound 1-51, 2,4,8-trimethyl-5-(2-(6-(trifluoromethyl)pyridin-3-yl)ethyl)-2,3,4,5-tetrahydro-1H-pyrido[4,3-b]indole], the inhibition at 1 µM in assay [1] is 65%; in assay [2] it was 14%. Further, the inhibition at 0.1 µM in assay [3] is 77%; in assay [4] it was 92%; in assay [5] it was 4%; in assay [6], 15%.
